Test results as given in US20250351832A1, “PHYTOCHEMICALS AS BIOPESTICIDES AND BIOSTIMULANTS” (KAY BEE BIO ORGANICS PVT. LTD., priority 2024, published 2025).
Read-outs that look alike come from different tables or passages of the source.

Columns and labels:
[1] = test system: Thrips; test: whole plant or invertebrate; conditions: in Gossypium hirsutum, 48 h
[2] = test system: Mealy Bug; conditions: mealy bug on cotton plants, green house, dose 1 ml/gm/lit. spray; for % Mortality at 48 Hrs. / Total No. of dead insect at 48 Hrs.: 48 hrs after application; for % Corrected Mortality at 48 Hrs.: corrected for water control
[3] = test system: Helicoverpa armigera; conditions: Helicoverpa armigera on okra fruits, dose 1 ml/gm/lit., 72 Hrs.; for Total No. of dead insect at 72 Hrs.: 10 insects/treatment, 4 replications; for % Corrected Mortality at 72 Hrs.: corrected for water control
[4] = test system: Spodoptera litura; test: whole plant or invertebrate; conditions: 72 h
[5] = test system: Helicoverpa armigera; conditions: Helicoverpa armigera 3rd instar on chickpea plants, dose 1 ml/gm/lit. spray; for % Mortality at 72 Hrs.: 72 hrs after application; for % Corrected Mortality at 72 Hrs.: corrected for water control
[6] = test system: Thrips; conditions: Thrips on cotton leaves; dose 1 ml/gm/lit.; 10 insects/treatment; 48 hrs after application
[7] = test system: tomato seedlings; test: Response of tomato plants, greenhouse growth (Ex. 30); format: in vivo; conditions: tomato seedlings, dose 1 ml/gm/lit; for Plant Height 5th Day / Stem Girth 5th Day / CCI 5th Day: 5th day after application; for Plant Height 10th Day / Stem Girth 10th Day / CCI 10th Day: 10th day after application; for Plant Height % Increase over pre on 10th Day / Stem Girth % Increase over pre on 10th Day / CCI % Increase over pre on 10th Day / Root Length (cm) 10th Day / Root Length % Increase over control: 10th day; for Root Length % Increase over control: vs water control
[8] = test system: Alternaria alternata; test: In vitro poisoned food technique against fungus (Ex. 20); format: cell-based
[9] = cited from earlier work
[10] = test system: Spodoptera litura; conditions: Spodoptera litura on castor leaves; dose 1 ml/gm/lit.; 10 insects/treatment; 72 hrs after application
[11] = test system: Spodoptera litura; conditions: Spodoptera litura 3rd instar on cabbage plants, dose 1 ml/gm/lit. spray; for % Mortality at 72 Hrs.: 72 hrs after application; for % Corrected Mortality at 72 Hrs.: corrected for water control
[12] = test system: Thrips; conditions: thrips on cotton plants, greenhouse, dose 1 ml/gm/lit. spray; for % Mortality at 48 Hrs. / Total No. of dead insect at 48 Hrs.: 48 hrs after application; for % Corrected Mortality at 48 Hrs.: corrected for water control
[13] = test system: Mite; conditions: mite on okra plants, green house, dose 1 ml/gm/lit. spray; for % Mortality at 48 Hrs. / Total No. of dead insect at 48 Hrs.: 48 hrs after application; for % Corrected Mortality at 48 Hrs.: corrected for water control
[14] = test system: Mealy Bug; conditions: Mealy Bug on cotton leaves, dose 1 ml/gm/lit., 48 Hrs.; for Total No. of dead insect at 48 Hrs.: 10 insects/treatment, 4 replications; for % Corrected Mortality at 48 Hrs.: corrected for water control
[15] = test system: Alternaria alternata; test: Alternaria leaf spot/blight on inoculated tomato plants (Ex. 28); format: in vivo; conditions: tomato plants, Alternaria alternata; after 7 days; dose 1 ml/gm/lit
[16] = test system: Aphid; conditions: Aphids on cotton plants, green house; dose 1 ml/gm/lit.; 10 insects/plant, 10 plants/treatment; 48 hrs
[17] = test system: chili seedlings; test: Response of chili plants, greenhouse growth (Ex. 31); format: in vivo; conditions: chili seedlings, dose 1 ml/gm/lit; for CCI 5th Day / Plant Height (cm) 5th Day: 5th day after application; for CCI 10th Day / Plant Height (cm) 10th Day: 10th day after application; for CCI % Increase over pre on 10th Day / Plant Height % Increase over pre on 10th Day / Root Lenght (cm) 10th Day / Stem Girth % Increase over pre on 10th Day / Root Lenght % Increase over control: 10th day; for Root Lenght % Increase over control: vs water control
[18] = test system: Aphid; test: whole plant or invertebrate; conditions: 48 h
[19] = test system: Mite; conditions: for Total No. of dead insect at 48 Hrs.: 10 insects/treatment, 4 replications, okra leaves
[20] = test system: Aphid; conditions: for Total No. of dead insect at 48 Hrs.: 10 insects/treatment, 4 replications, cotton leaves
[21] = read-out: % Corrected Mortality at 48 Hrs.
[22] = read-out: % Mortality at 48 Hrs.
[23] = read-out: % Corrected Mortality at 72 Hrs.
[24] = read-out: % Mortality at 72 Hrs.
[25] = poisoned food technique, PDA medium, dose 1 ml/gm/lit., after seven days
[26] = Table 13, descriptive, no test described

Cc1ccc(C(C)C)c(O)c1 [Thymol]
mortality at 1 mL or g/L [1, 21]: 22.9%
mortality at 1 mL or g/L [1, 22]: 32.5%
% Mortality at 48 Hrs. [2]: 55.00%
Total No. of dead insect at 48 Hrs. [2]: 55.00
% Corrected Mortality at 48 Hrs. [2]: 50.00%
Total No. of dead insect at 72 Hrs. [3]: 6.50
% Mortality at 72 Hrs. [3]: 65.00%
% Corrected Mortality at 72 Hrs. [3]: 65.00%
mortality at 1 mL or g/L [4, 23]: 65.8%
mortality at 1 mL or g/L [4, 24]: 67.5%
% Mortality at 72 Hrs. [5]: 62.50%
% Corrected Mortality at 72 Hrs. [5]: 62.50%
Total No. of dead insect at 48 Hrs. [6]: 3.25
Plant Height 5th Day [7]: 6.81 cm
Stem Girth 5th Day [7]: 1.90 mm
Plant Height 10th Day [7]: 7.62 cm
Stem Girth 10th Day [7]: 2.53 mm
Plant Height % Increase over pre on 10th Day [7]: 30.48%
Stem Girth % Increase over pre on 10th Day [7]: 61.42%
CCI 5th Day [7]: 14.12
CCI % Increase over pre on 10th Day [7]: 22.87%
Root Length (cm) 10th Day [7]: 4.82 cm
CCI 10th Day [7]: 15.42
Root Length % Increase over control [7]: 44.89%
Mean colony Diameter (mm) [8, 25]: 51.50 mm
inhibition of growth at 1 mL or g/L ([8]; poisoned food technique, PDA medium, dose 1 ml/gm/lit., after seven days, vs untreated control, read-out: % Inhibition of growth): 41.5%
Antioxidant Activity - Mode of action [9, 26]: Antioxidant and food
Bactericidal Activity - Mode of action [9, 26]: Growth inhibition
Insecticidal Activities - Mode of action [9, 26]: Inhibited the growth,
Virucidal Activity - Mode of action [9, 26]: Inhibit virus replication
Phytotonic Effect ([9]; Table 13, effect on plants, descriptive): Improves
Total No. of dead insect at 72 Hrs. [10]: 6.75
% Mortality at 72 Hrs. [11]: 65.00%
% Corrected Mortality at 72 Hrs. [11]: 63.16%
% Mortality at 48 Hrs. [12]: 35.00%
Total No. of dead insect at 48 Hrs. [12]: 35.00
% Corrected Mortality at 48 Hrs. [12]: 27.78%
% Mortality at 48 Hrs. [13]: 62.50%
Total No. of dead insect at 48 Hrs. [13]: 62.50
% Corrected Mortality at 48 Hrs. [13]: 60.53%
Total No. of dead insect at 48 Hrs. [14]: 5.50
% Mortality at 48 Hrs. [14]: 55.00%
% Corrected Mortality at 48 Hrs. [14]: 52.63%
% Disease reduction over Control [15]: 61.16%
Total No. of dead insect at 48 Hrs. [16]: 62.50
CCI 5th Day [17]: 13.80
Plant Height (cm) 5th Day [17]: 6.13 cm
CCI % Increase over pre on 10th Day [17]: 75.74%
Plant Height % Increase over pre on 10th Day [17]: 58.04%
Root Lenght (cm) 10th Day [17]: 3.77 cm
Stem Girth % Increase over pre on 10th Day [17]: 51.36%
CCI 10th Day [17]: 14.85
Plant Height (cm) 10th Day [17]: 7.27 cm
Root Lenght % Increase over control [17]: 37.87%
mortality at 1 mL or g/L [18, 21]: 55.9%
mortality at 1 mL or g/L [18, 22]: 62.5%
Total No. of dead insect at 48 Hrs. ([19]; Dose 1 ml/gm/lit.): 6.00
% Corrected Mortality at 48 Hrs. ([19]; in vivo): 56.76%
% Mortality at 48 Hrs. ([19]; in vivo): 60.00%
Total No. of dead insect at 48 Hrs. ([20]; Dose 1 ml/gm/lit.): 6.25
% Corrected Mortality at 48 Hrs. ([20]; in vivo): 57.14%

C/C=C\c1cc(OC)c(OC)cc1OC [β-Asarone]
mortality at 1 mL or g/L [1, 21]: 62.9%
mortality at 1 mL or g/L [1, 22]: 67.5%
% Mortality at 48 Hrs. [2]: 35.00%
Total No. of dead insect at 48 Hrs. [2]: 35.00
% Corrected Mortality at 48 Hrs. [2]: 27.78%
Total No. of dead insect at 72 Hrs. [3]: 5.00
% Mortality at 72 Hrs. [3]: 50.00%
% Corrected Mortality at 72 Hrs. [3]: 50.00%
mortality at 1 mL or g/L [4, 23]: 57.9%
mortality at 1 mL or g/L [4, 24]: 60%
% Mortality at 72 Hrs. [5]: 52.50%
% Corrected Mortality at 72 Hrs. [5]: 52.50%
Total No. of dead insect at 48 Hrs. [6]: 6.75
Plant Height 5th Day [7]: 6.72 cm
Stem Girth 5th Day [7]: 1.72 mm
Plant Height 10th Day [7]: 7.24 cm
Stem Girth 10th Day [7]: 2.45 mm
Plant Height % Increase over pre on 10th Day [7]: 27.69%
Stem Girth % Increase over pre on 10th Day [7]: 56.32%
CCI 5th Day [7]: 13.45
CCI % Increase over pre on 10th Day [7]: 29.08%
Root Length (cm) 10th Day [7]: 4.43 cm
CCI 10th Day [7]: 14.56
Root Length % Increase over control [7]: 33.31%
inhibition of growth at 1 mL or g/L ([8]; […]): 54%
Mean colony Diameter (mm) [8, 25]: 40.50 mm
Antifungal Activity - Mode of action [9, 26]: Completely inhibited
Insecticidal Activities - Mode of action [9, 26]: Reductions in oviposition
Nematicidal Activity - Mode of action [9, 26]: Act as potent nematicide
Total No. of dead insect at 72 Hrs. [10]: 6.00
% Mortality at 72 Hrs. [11]: 55.00%
% Corrected Mortality at 72 Hrs. [11]: 52.63%
% Mortality at 48 Hrs. [12]: 65.00%
Total No. of dead insect at 48 Hrs. [12]: 65.00
% Corrected Mortality at 48 Hrs. [12]: 61.11%
% Mortality at 48 Hrs. [13]: 22.50%
Total No. of dead insect at 48 Hrs. [13]: 22.50
% Corrected Mortality at 48 Hrs. [13]: 18.42%
Total No. of dead insect at 48 Hrs. [14]: 3.00
% Mortality at 48 Hrs. [14]: 30.00%
% Corrected Mortality at 48 Hrs. [14]: 26.32%
% Disease reduction over Control [15]: 64.46%
Total No. of dead insect at 48 Hrs. [16]: 70.00
CCI 5th Day [17]: 9.58
Plant Height (cm) 5th Day [17]: 5.70 cm
CCI % Increase over pre on 10th Day [17]: 40.02%
Plant Height % Increase over pre on 10th Day [17]: 51.59%
Root Lenght (cm) 10th Day [17]: 3.17 cm
Stem Girth % Increase over pre on 10th Day [17]: 40.46%
CCI 10th Day [17]: 12.49
Plant Height (cm) 10th Day [17]: 7.61 cm
Root Lenght % Increase over control [17]: 16.00%
mortality at 1 mL or g/L [18, 21]: 64.7%
mortality at 1 mL or g/L [18, 22]: 70%
Total No. of dead insect at 48 Hrs. ([19]; Dose 1 ml/gm/lit.): 2.50
% Corrected Mortality at 48 Hrs. ([19]; Dose 1 ml/gm/lit., 48 hrs): 18.92%
% Mortality at 48 Hrs. ([19]; Dose 1 ml/gm/lit., 48 hrs): 25.00%
Total No. of dead insect at 48 Hrs. ([20]; Dose 1 ml/gm/lit.): 7.25
% Corrected Mortality at 48 Hrs. ([20]; Dose 1 ml/gm/lit., 48 hrs): 68.57%
% Mortality at 48 Hrs. ([20]; Dose 1 ml/gm/lit., 48 hrs): 72.50%
